# In ChEMBL document CHEMBL1201862, “PubChem BioAssay data set” (2004):
# Active and inactive are the calls of the source.
# Tests used:
# [1] = blockers of SFLLRN-triggered platelet ATP secretion – cell-based, human platelets, luminescence, dry powder, dose response (AID 493100); assay type: functional
# [2] = Luminescence Cell-Based Dose Response Follow up to Identify Inhibitors of Platelet Dense Granule Release. [Related pubchem assays (depositor defined):AID1663, AID1678, AID2398]; assay type: functional
# [3] = inhibitors of SFLLRN-triggered platelet P-selectin exposure, dose response, cell-based, fluorescence, flow cytometry, human platelets (AID 2511); assay type: functional
# [4] = biological target: T1, Small ubiquitin-related modifier 1 (Homo sapiens, UniProt P63165); assay: inhibitors of SUMO1 peptide binding, dose response, biochemical, fluorescence polarization, uHTS hits (AID 624382); assay type: functional; settings: read-out: IC50_Mean
# T1 sequence (P63165 whole entry): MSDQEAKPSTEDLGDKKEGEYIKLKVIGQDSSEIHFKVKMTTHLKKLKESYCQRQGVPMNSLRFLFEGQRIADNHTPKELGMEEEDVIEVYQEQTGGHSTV
# [5] = biological target: T2, Dual specificity protein phosphatase 6 (Rattus norvegicus, UniProt Q64346); assay: MKP-3 phosphatase inhibitors, primary screen, biochemical, rat enzyme, in vitro (AID 425)
# T2 sequence (Q64346 whole entry): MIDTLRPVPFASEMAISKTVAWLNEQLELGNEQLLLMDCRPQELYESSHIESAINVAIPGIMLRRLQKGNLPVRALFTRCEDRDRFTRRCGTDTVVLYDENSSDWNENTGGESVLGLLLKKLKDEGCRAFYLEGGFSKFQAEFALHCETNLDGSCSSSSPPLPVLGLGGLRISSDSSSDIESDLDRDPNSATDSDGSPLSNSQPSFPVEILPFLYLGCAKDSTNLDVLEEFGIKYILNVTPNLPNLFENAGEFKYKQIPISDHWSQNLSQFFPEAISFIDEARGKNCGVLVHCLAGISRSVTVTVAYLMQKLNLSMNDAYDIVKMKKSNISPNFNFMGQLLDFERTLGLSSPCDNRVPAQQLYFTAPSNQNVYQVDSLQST
# [6] = biological target: Eukaryotic translation initiation factor 4E (Mus musculus, UniProt P63073); assay: eIF4E–eIF4G protein interaction inhibitors, dose response, biochemical, TR-FRET (AID 855); assay type: functional;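 note: potency for disrupting eIF4E binding to eIF4GI seen as loss of FRET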
# Sequence of Eukaryotic translation initiation factor 4E (P63073 whole entry, the tested form may be a part): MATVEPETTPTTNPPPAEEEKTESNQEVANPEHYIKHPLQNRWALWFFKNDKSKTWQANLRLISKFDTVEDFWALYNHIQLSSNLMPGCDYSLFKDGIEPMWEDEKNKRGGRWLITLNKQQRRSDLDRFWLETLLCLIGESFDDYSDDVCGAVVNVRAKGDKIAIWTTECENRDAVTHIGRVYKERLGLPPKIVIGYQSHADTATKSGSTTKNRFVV
# [7] = HIV-1 Env-mediated cell fusion inhibitors, dose response, CCR5-tropic Env (AID 2279); assay type: functional
# [8] = system: Vero; assay: Vero cell cytotoxicity, cytotoxicity control for flavivirus capping enzyme inhibitors (AID 588742); assay type: functional; settings: Chlorocebus sabaeus
# [9] = biological target: T1, Small ubiquitin-related modifier 1; assay: inhibitors of SUMO1 partner interactions, dose response, biochemical, FRET (AID 624383); assay type: functional; settings: read-out: IC50_Mean
# [10] = biological target: Envelope glycoprotein gp160 (Human immunodeficiency virus 1, UniProt Q6QLK5); assay: inhibitors of HIV fusion peptide binding, primary screen, biochemical, uHTS, fluorescence dequenching (AID 1986)
# [11] = biological target: Genome polyprotein (dengue virus type 2, UniProt P29990); assay: Dengue-2 NS5 methyltransferase inhibitors, primary screen, biochemical, confirmation dose response (AID 588689); assay type: functional
# Sequence of Genome polyprotein (P29990 2492-3391 limits assumed): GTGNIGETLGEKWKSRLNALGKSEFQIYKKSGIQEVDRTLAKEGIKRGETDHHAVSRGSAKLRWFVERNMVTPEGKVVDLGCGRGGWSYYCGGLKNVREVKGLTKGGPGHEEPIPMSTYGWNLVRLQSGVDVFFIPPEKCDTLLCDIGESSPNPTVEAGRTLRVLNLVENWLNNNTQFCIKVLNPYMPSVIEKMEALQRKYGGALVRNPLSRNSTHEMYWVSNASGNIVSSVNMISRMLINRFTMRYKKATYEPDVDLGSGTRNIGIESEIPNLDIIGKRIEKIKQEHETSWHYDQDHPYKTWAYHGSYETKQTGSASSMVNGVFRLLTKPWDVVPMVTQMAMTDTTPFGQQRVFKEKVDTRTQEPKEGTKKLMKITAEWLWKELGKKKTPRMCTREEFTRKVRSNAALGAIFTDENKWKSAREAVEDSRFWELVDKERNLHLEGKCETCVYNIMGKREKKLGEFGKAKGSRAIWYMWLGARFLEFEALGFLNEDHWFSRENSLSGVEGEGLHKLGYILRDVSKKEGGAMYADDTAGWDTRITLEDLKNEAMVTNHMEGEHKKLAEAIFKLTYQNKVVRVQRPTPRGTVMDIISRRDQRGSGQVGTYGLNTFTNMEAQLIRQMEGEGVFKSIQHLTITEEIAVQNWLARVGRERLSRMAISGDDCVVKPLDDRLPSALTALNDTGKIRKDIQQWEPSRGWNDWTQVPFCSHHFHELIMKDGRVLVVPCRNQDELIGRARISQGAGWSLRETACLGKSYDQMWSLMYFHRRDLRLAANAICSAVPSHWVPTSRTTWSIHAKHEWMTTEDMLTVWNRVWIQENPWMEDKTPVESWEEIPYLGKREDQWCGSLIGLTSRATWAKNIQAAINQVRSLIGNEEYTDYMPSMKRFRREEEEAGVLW
# [12] = biological target: Nonstructural protein 1 (Influenza A virus, UniProt Q194T2); assay type: functional, Influenza A virus (A/California/07/2009(H1N1))
# Sequence of Nonstructural protein 1 (Q194T2 whole entry): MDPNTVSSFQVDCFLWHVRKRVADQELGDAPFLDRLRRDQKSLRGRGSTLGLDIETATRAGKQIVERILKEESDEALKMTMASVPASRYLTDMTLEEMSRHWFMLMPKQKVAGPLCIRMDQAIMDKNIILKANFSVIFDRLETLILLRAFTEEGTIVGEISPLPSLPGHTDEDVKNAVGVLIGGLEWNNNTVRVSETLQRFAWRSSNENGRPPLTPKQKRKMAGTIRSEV
# [13] = biological target: T3, Dual specificity protein phosphatase 3 (Homo sapiens, UniProt P51452); assay: VHR1 phosphatase inhibitors, biochemical (AID 1878)
# T3 sequence (P51452 whole entry): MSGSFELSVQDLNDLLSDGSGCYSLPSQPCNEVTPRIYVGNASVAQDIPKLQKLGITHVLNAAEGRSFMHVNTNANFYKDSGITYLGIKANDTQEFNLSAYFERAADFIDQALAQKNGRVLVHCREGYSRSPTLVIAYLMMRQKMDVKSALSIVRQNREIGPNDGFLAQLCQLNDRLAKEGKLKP
# [14] = biological target: DNA (cytosine-5)-methyltransferase 1 (Homo sapiens, UniProt P26358); assay: DNMT1 methyltransferase inhibitors, confirmation, biochemical, fluorescent molecular beacon (AID 602386); assay type: functional
# Sequence of DNA (cytosine-5)-methyltransferase 1 (P26358 whole entry): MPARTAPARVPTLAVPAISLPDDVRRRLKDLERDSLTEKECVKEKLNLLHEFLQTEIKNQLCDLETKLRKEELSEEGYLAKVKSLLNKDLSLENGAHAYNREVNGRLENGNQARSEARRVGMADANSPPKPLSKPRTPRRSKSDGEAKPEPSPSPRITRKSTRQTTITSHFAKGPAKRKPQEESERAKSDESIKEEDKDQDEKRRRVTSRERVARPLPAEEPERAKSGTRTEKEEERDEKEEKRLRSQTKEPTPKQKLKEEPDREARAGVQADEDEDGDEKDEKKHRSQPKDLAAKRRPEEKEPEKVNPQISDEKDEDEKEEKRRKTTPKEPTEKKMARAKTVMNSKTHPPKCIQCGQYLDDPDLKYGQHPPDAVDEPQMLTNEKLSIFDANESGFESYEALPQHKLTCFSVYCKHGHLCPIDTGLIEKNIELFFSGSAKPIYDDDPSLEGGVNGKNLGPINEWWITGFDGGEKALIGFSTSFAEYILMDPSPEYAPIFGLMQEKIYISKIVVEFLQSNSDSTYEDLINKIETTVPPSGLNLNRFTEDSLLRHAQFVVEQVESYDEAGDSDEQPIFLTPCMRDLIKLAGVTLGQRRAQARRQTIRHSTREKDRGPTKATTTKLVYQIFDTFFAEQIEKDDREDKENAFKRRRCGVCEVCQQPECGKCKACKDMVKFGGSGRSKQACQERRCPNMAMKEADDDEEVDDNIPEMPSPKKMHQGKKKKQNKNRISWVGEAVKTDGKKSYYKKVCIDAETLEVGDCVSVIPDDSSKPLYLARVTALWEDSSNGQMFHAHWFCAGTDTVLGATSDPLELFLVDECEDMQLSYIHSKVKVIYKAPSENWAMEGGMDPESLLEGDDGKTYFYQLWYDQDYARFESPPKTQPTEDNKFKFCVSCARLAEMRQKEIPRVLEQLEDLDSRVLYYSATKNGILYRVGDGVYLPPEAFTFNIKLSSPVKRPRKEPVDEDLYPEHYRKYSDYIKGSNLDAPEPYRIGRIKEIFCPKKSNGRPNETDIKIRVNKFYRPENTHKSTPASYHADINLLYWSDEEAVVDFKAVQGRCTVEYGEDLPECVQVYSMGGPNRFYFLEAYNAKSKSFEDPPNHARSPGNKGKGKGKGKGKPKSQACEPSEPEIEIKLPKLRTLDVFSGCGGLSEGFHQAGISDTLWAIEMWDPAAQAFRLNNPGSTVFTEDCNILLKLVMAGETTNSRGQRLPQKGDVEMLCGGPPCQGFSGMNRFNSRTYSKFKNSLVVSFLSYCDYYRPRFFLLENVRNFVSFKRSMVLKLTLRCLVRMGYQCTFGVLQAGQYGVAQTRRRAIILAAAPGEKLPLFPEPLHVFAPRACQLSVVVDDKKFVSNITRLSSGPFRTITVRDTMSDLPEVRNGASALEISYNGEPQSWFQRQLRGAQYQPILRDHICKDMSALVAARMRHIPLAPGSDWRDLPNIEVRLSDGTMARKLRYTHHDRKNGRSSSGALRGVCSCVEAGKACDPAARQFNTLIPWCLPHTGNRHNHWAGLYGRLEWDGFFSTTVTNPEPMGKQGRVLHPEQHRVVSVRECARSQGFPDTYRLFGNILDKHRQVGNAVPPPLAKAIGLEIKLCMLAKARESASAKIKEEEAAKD
# [15] = biological target: T3, Dual specificity protein phosphatase 3; assay: VHR1 phosphatase inhibitors, primary screen, biochemical, absorbance, uHTS (AID 1654)
# [16] = biological target: Dual specificity tyrosine-phosphorylation-regulated kinase 1A (Rattus norvegicus, UniProt Q63470); assay type: biochemical, Homo sapiens
# [17] = biological target: DNA topoisomerase (Yersinia pestis, UniProt A0A2S9PM60); assay: Y. pestis Topo-I inhibitors, cleavage product readout, dose response, biochemical, cherry-pick (AID 588525)
# [18] = system: INS1; assay: beta cell apoptosis inhibitors, cytokine rescue, dose response, luminescence, retest (AID 449756); assay type: functional, cell-based; settings: Rattus norvegicus;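 note: cell death triggered by IL-1 beta plus TNF-alpha plus IFN-gamma mixture; protective hits raise ATP signal compared with cytokine alone wells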
# [19] = biological target: Cystic fibrosis transmembrane conductance regulator/Golgi-associated PDZ and coiled-coil motif-containing protein (Homo sapiens, UniProt P13569+Q9HD26); assay: CAL PDZ peptide-binding inhibitors, dose response, biochemical, fluorescence polarization, Cerulean-tagged CAL PDZ, cherry-picks (AID 504773)
# [20] = biological target: G-protein coupled receptor 55 (Homo sapiens, UniProt Q9Y2T6); assay: GPR55 agonists via beta-arrestin recruitment, primary screen, imaging, U2OS cells, beta-arrestin-GFP redistribution (AID 1961); assay type: functional
# Sequence of G-protein coupled receptor 55 (Q9Y2T6 whole entry): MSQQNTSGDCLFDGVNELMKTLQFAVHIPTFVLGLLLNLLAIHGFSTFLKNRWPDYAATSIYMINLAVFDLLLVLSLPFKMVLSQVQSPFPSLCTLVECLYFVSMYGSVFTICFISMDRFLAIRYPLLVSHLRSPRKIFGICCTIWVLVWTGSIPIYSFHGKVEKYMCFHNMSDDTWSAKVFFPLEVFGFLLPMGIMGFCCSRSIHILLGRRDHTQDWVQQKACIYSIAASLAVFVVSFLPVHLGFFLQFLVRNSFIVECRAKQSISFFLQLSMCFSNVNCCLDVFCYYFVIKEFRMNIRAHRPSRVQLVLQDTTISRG
# [21] = Counterscreen for AddAB inhibitors: absorbance-based bacterial cell-based high throughput dose response assay for inhibitors of bacterial viability. [Related pubchem assays (depositor defined):AID435030, AID449728, AID449731, AID488942, AID488955, AID488956]; assay type: functional
# [22] = biological target: Beta-adrenergic receptor kinase 1 (Homo sapiens, UniProt P25098); assay: aptamer displacement from bead-bound GRK2 – biochemical, cherry pick 1, bead flow cytometry, dose response (AID 504500)
# Sequence of Beta-adrenergic receptor kinase 1 (P25098 whole entry): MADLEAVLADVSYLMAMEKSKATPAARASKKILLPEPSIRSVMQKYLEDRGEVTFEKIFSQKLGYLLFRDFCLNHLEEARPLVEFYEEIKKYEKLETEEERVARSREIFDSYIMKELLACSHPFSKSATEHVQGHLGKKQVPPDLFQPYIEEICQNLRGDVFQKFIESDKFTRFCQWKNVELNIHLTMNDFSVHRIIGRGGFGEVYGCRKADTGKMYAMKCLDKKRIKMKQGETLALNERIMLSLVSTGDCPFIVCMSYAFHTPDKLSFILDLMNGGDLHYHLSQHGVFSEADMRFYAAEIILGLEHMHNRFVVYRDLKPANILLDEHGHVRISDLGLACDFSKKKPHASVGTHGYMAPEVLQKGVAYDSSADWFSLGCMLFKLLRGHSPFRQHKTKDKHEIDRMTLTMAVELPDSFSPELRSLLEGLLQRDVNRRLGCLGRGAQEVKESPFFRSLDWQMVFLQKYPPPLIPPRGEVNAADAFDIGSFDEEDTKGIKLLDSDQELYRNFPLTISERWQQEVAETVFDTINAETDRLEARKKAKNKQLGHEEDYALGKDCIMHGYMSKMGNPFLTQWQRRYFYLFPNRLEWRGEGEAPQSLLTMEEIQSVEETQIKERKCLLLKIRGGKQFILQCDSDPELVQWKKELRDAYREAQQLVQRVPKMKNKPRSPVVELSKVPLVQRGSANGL
# [23] = biological target: Exodeoxyribonuclease V (Escherichia coli (strain K12), UniProt P04993+P07648+P08394); assay: E. coli RecBCD inhibitors, dose response, counter-screen for AddAB inhibitor project, absorbance, V66 E. coli, mutant T4 phage (AID 492957); assay type: functional, cell-based, Escherichia coli str. K-12 substr. MG1655
# [24] = biological target: Voltage-gated inwardly rectifying potassium channel KCNH2 (Homo sapiens, UniProt Q12809); settings: Potency;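 note: confirmatory quantitative high-throughput screen measuring inhibition of hERG channel activity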
# [25] = biological target: Hexokinase-1 (Homo sapiens, UniProt P19367); assay: HK1 enzyme inhibition by HKDC1 hits, SAR follow-up, selectivity assay for HKDC1 inhibitor project, biochemical, set 2, resazurin fluorescence coupled readout (AID 588356); assay type: functional
# [26] = biological target: T4, Hexokinase HKDC1 (Homo sapiens, UniProt Q2TB90); assay: HKDC1 hexokinase inhibitors, SAR follow-up, biochemical, set 2 (AID 588355); assay type: functional
# T4 sequence (Q2TB90 whole entry): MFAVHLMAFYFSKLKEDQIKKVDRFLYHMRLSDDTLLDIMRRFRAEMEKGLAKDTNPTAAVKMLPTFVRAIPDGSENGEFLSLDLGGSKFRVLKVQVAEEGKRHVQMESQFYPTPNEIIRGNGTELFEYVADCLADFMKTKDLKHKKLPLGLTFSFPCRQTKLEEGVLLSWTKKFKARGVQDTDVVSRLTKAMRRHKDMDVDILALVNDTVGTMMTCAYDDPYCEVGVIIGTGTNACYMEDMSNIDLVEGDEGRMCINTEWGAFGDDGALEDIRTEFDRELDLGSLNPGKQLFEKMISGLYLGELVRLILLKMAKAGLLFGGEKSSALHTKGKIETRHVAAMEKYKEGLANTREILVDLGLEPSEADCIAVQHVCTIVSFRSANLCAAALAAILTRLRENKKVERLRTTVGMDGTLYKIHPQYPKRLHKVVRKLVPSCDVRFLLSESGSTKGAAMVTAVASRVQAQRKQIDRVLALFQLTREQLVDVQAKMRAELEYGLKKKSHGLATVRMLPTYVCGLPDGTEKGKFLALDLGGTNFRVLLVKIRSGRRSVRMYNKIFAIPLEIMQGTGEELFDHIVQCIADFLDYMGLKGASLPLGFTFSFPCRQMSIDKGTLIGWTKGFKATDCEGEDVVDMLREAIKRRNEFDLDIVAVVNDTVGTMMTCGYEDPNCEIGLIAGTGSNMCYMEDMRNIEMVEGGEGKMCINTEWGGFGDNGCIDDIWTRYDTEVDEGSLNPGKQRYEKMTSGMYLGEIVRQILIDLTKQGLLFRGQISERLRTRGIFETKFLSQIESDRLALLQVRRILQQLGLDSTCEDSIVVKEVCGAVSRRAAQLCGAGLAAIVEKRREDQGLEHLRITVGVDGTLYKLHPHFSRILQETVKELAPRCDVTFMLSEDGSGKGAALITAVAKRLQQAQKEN
# [27] = system: HEK293; assay: SAR Analysis of small molecule inhibitors of T-cell specific antigen receptor-induced NF-kB activation in a HEK-293T cell line using a luminescence assay - Set 2. [Related pubchem assays (depositor defined):AID435003, AID435012, AID489026]; assay type: functional, cell-based; settings: Homo sapiens
# [28] = system: HEK293; assay: cytotoxicity in HEK293T NF-kB-Luc cells, SAR follow-up, cytotoxicity control for NF-kB activator project, cell-based, resazurin fluorescence (AID 493251); assay type: functional; settings: Homo sapiens
# [29] = system: Jurkat; assay: SAR Analysis of small molecule inhibitors of T-cell specific antigen receptor-induced NF-kB activation in a Jurkat cell line using a luminescence assay - Set 2. [Related pubchem assays (depositor defined):AID435003, AID435012, AID465]; assay type: functional, cell-based; settings: Homo sapiens
# [30] = system: A-375; assay: MITF: Counter assay: A375 proliferation Measured in Cell-Based System Using Plate Reader - 2084-03_Inhibitor_Dose_DryPowder_Activity. [Related pubchem assays (depositor defined):AID488944]; assay type: functional; settings: Homo sapiens
# [31] = system: A-375; assay: A375 melanoma cell viability reduction, dose response, counter-screen for MITF modulator project, cherry-pick samples, set 2 (AID 540335); assay type: functional, cell-based; settings: Homo sapiens
# [32] = cells; assay type: functional
# [33] = system: Streptococcus sp. 'group A'; assay: growth inhibition of control SK(-) GAS strain, dose response, counter-screen for streptokinase expression inhibitor project, luminescence, kanamycin, BacTiterGlo, confirmation (AID 1900); assay type: functional, organism-based
# [34] = system: Streptococcus; assay: Group A Streptococcus viability loss, dose response, counter-screen for streptokinase expression inhibitor project, luminescence, BacTiterGlo (AID 1915); assay type: functional, organism-based;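 note: potency for reduction of bacterial viability or growth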
# [35] = biological target: T5, DNA repair and recombination protein RAD54-like (Homo sapiens, UniProt Q92698); assay: inhibitors of human RAD54 branch migration, confirmation, biochemical, fluorescence, cherry-picked samples, dose series (AID 651657); assay type: functional
# T5 sequence (Q92698 whole entry): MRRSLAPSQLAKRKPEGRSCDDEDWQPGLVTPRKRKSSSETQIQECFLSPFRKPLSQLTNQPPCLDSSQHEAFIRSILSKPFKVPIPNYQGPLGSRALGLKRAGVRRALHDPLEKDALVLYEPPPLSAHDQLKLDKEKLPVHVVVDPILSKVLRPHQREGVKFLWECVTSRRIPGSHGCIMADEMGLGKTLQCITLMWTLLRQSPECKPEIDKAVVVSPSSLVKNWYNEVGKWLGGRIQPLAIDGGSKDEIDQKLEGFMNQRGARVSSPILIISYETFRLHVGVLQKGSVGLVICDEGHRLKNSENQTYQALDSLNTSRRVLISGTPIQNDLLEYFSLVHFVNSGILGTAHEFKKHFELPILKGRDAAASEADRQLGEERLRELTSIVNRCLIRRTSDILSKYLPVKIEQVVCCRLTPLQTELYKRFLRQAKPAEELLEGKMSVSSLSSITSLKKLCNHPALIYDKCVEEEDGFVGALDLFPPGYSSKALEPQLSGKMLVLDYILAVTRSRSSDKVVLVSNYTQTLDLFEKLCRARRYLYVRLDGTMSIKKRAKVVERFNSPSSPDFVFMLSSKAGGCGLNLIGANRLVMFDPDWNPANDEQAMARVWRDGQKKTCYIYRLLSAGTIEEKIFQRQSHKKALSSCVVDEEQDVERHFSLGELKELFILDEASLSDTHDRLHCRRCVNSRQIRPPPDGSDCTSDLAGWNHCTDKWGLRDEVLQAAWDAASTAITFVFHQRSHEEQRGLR
# [36] = system: Escherichia coli; assay: microbe, parasite or virus in culture
# [37] = system: Escherichia coli; assay: microbe, parasite or virus in culture; remark: listed apart in the source
smiles,measurement,setting,value
Cc1ccc(-c2c(C#N)c(N)n(-c3ccc(Cl)cc3)c(=O)c2C#N)cc1,AC50,[1],20.4 µM (active)
same,EC50,[2],9.21 µM (active)
same,EC50,[3],< 3 µM (active)
COc1cc(/C=C2\SC(=O)N(Cc3ccc(Cl)cc3)C2=O)cc([N+](=O)[O-])c1O,IC50,[4],> 66.6 µM (inactive)
same,IC50,[5],> 158 µM (not active)
same,IC50,[6],36.7 µM (inactive)
same,IC50,[7],> 50 µM (active)
same,CC50,[8],> 40 µM (active)
same,IC50,[9],6.99 µM (active)
same,IC50,[10],14.9 µM (active)
same,IC50,[11],67.5 µM (active)
same,IC50,[12],26.9 µM (active)
same,IC50,[13],3.54 µM (active)
same,IC50,[14],4.6 µM (active)
same,IC50,[15],4.68 µM (active)
c1nc2sc3c(c2c2nnnn12)CCCC3,AC50,[16],63.2 µM (active)
CSc1ccccc1OCc1cc(C(=O)NCCCc2ccccc2)no1,AC50,[17],17 µM (active)
O=C(c1ccccc1)c1c2c(cc3sc4ccccc4[n+]13)-c1cccc3cccc-2c13,AC50,[18],2.05 µM (active)
same,AC50,[19],72.6 µM (active)
same,EC50,[20],> 32 µM (inactive)
same,IC50,[21],15.1 µM (inactive)
same,EC50,[22],0.06 µM (active)
same,IC50,[23],91.3 µM (inactive)
O=[N+]([O-])c1cccc(Cl)c1Cl,AC50,[24],50.1 µM (inconclusive)
O=C(NC1C(=O)N(CCN2CCOCC2)c2ccccc21)c1ccccc1 (configuration not stated),IC50,[25],> 80 µM (inactive)
same,IC50,[26],> 80 µM (inactive)
O=C(Nc1ccc2c(c1)CCO2)c1ccc([N+](=O)[O-])o1,IC50,[27],45.6 µM (inactive)
same,IC50,[28],59.5 µM (inactive)
same,IC50,[29],33.8 µM (inactive)
CSC(=N)N/N=C/c1ccc2c(c1)OCO2,AC50,[30],> 35 µM (active)
same,AC50,[31],> 35 µM (active)
NC1CCN(c2c(F)cc3c(=O)c(C(=O)O)cn(C4CC4)c3c2Cl)C1 (configuration not stated) [CLINAFLOXACIN],IC50,[32],0.15 µM (active)
same,EC50,[33],0.115 µM (active)
same,EC50,[34],0.142 µM (active)
same,AC50,[35],41.4 µM (active)
same,AC50,[36],0.816 µM (active)
same,AC50,[37],4.49 µM (active)
